# Measured values reported in patent publication US12263171B2, “7-, 8-, and 10-substituted amino triazolo quinazoline derivatives as adenosine receptor antagonists, pharmaceutical compositions and their use” (Merck Sharp & Dohme LLC, priority 2018, dated 2025).
# pIC50: −log10 of the molar value.
# Experiments:
# [1] = target: T1, human A2b adenosine receptor (Homo sapiens (Human), UniProt P29275); experiment: A2B antagonism in cAMP cell-based assay (LANCE cAMP, HEK293 cells, 600 nM adenosine); conditions: values marked *: cAMP cell-based assay
# Procedure: Measurement of A2A and A2B Antagonism in cAMP Cell-Based Assay
# All subsequent liquid additions were performed using a multichannel pipettor. […] After this time 5 μL of either 300 nM or 600 nM adenosine (Sigma Cat. No. A9251) for A2A and A2B respectively was added and incubated for 30 minutes at 37° C. and 5% CO2 in a humidified environment. At this time detection mix was prepared by combining the LANCE Eu-W8044 labeled streptavidin and. Biotin-cAMP in detection buffer according to the manufacturers protocol. […] Curve fitting of the percent effect data versus the log of compound concentration used a 4-parameter concentration response curve fitting algorithm to calculate IC50 values.
# [2] = target: human A2a adenosine receptor (Homo sapiens (Human), UniProt P29274); experiment: A2a receptor affinity radioligand binding assay ([3H] SCH58261, membranes from HEK293 or CHO cells); conditions: unstarred values: radioligand binding
# Outline: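 Displacement of tritiated SCH58261 (working dilution 4 nM) from recombinant human A2a receptor membranes (HEK293 or CHO), 60 min at room temperature in Tris pH 7.4/MgCl2 buffer after 15–30 min compound preincubation. Scintillation counting after filtration; normalized percent effect fitted 4-parameter logistic for IC50.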
# [3] = target: T1, human A2b adenosine receptor; experiment: A2b radioligand filtration binding assay (tritiated proprietary A2b antagonist, HEK293 membranes); conditions: unstarred values: radioligand binding
# Outline: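 Displacement of a tritiated proprietary A2b antagonist from membranes of HEK293 cells recombinantly expressing human A2b receptor, measured by filtration and scintillation counting. Percent effect was normalized to total and non-specific binding and fitted with a 4-parameter logistic to give IC50.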
# T1 sequence (P29275 whole entry): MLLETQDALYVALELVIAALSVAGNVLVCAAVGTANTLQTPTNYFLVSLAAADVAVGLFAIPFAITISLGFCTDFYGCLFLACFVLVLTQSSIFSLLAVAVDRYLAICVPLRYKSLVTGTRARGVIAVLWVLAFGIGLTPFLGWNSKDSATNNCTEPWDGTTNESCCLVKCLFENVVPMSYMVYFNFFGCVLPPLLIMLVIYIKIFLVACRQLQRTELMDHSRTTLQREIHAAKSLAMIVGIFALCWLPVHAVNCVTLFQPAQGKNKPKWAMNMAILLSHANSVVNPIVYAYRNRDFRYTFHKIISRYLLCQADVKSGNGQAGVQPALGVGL
# human A2a adenosine receptor, sequence (P29274 whole entry): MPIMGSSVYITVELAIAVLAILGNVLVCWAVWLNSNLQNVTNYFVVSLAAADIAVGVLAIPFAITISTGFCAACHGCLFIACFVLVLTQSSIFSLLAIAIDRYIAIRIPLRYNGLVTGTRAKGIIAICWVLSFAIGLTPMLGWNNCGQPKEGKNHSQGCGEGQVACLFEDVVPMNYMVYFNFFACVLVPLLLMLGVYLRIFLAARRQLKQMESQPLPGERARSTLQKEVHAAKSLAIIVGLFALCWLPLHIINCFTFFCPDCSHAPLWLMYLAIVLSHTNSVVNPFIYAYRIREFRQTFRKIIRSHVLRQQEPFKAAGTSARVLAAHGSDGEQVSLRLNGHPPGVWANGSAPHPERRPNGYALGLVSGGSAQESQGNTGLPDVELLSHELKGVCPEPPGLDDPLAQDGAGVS
pIC50 [1],pIC50 [2],pIC50 [3],SMILES
7.51,9.15,,"COc1cccc2c1nc(N)n1nc([C@@H]3CCCN(c4cnn(CCF)c4)C3)nc21 [Example 14, (R)-2-(1-(1-(2-fluoroethyl)-1H-pyrazol-4-yl)piperidin-3-yl)-7-methoxy-[1,2,4]triazolo[1,5-c]quinazolin-5-amine]"
5.94,9.10,,"COc1cccc2c1nc(N)n1nc(C3CCC(C)N(c4cnn(CC(F)(F)F)c4)C3)nc21 (single isomer, unassigned) [Example 142B, 7-methoxy-2-((3R,6R or 3S,6S)-6-methyl-1-(1-(2,2,2-trifluoroethyl)-1H-pyrazol-4-yl)piperidin-3-yl)-[1,2,4]triazolo[1,5-c]quinazolin-5-amine]"
6.92,8.03,,"Cn1cc(N2CCCC(c3nc4c5cccc(F)c5nc(N)n4n3)C2)cn1 (single isomer, unassigned) [Example 131B, (S or R)-7-fluoro-2-(1-(1-methyl-1H-pyrazol-4-yl)piperidin-3-yl)-[1,2,4]triazolo[1,5-c]quinazolin-5-amine]"
7.49,8.92,,COc1ccc2c(c1)nc(N)n1nc([C@@H]3CCCN(c4cnn(C(C)(C)[C@H](C)O)c4)C3)nc21 [Example 225A]
5.70,9.30,,"COc1ccc2c(c1)nc(N)n1nc([C@H]3C[C@@H](C)CN(c4cn([C@@H](C)[C@H](C)O)nc4C)C3)nc21 [Example 219A, (2S,3S)-3-(4-((3S,5R)-3-(5-amino-8-methoxy-[1,2,4]triazolo[1,5-c]quinazolin-2-yl)-5-methylpiperidin-1-yl)-3-methyl-1H-pyrazol-1-yl)butan-2-ol]"
6.17,9.00,,CCn1cc(N2C[C@H](c3nc4c5cccc(OC)c5nc(N)n4n3)CC(F)(F)C2)cn1 [Example 153B]
7.74,8.64,,"COc1cccc2c1nc(N)n1nc([C@@H]3CCCN(c4ncc[nH]4)C3)nc21 [Example 80, (R)-2-(1-(1H-imidazol-2-yl)piperidin-3-yl)-7-methoxy-[1,2,4]triazolo[1,5-c]quinazolin-5-amine]"
6.20,8.82,,"COc1cccc2c1nc(N)n1nc([C@@H]3CCCN(c4ccn(C(C)C)c(=O)c4)C3)nc21 [Example 89, (R)-4-(3-(5-amino-7-methoxy-[1,2,4]triazolo[1,5-c]quinazolin-2-yl)piperidin-1-yl)-1-isopropylpyridin-2(1H)-one]"
6.12,9.00,,"COc1cccc2c1nc(N)n1nc([C@@H]3CCCN(c4cnn(C)c4C(F)(F)F)C3)nc21 [Example 2, (R)-7-methoxy-2-(1-(1-methyl-5-(trifluoromethyl)-1H-pyrazol-4-yl)piperidin-3-yl)-[1,2,4]triazolo[1,5-c]quinazolin-5-amine]"
7.87,9.40,,"COc1ccc2c(c1)nc(N)n1nc([C@H]3C[C@@H](C)CN(c4cnn(C(C)(C)CO)c4)C3)nc21 [Example 222C, 2-(4-((3S,5R)-3-(5-amino-8-methoxy-[1,2,4]triazolo[1,5-c]quinazolin-2-yl)-5-methylpiperidin-1-yl)-1H-pyrazol-1-yl)-2-methylpropan-1-ol]"
,9.15,6.84,"COc1cccc2c1nc(N)n1nc([C@@H]3CCCN(c4ccn(C)n4)C3)nc21 [Example 66, (R)-7-methoxy-2-(1-(1-methyl-1H-pyrazol-3-yl)piperidin-3-yl)-[1,2,4]triazolo[1,5-c]quinazolin-5-amine]"
,8.39,8.85,"COc1cccc2c1nc(N)n1nc([C@@H]3CCCN(c4cnn(C(C)(C)C(=O)NC(C)C)c4)C3)nc21 [Example 38, (R)-2-(4-(3-(5-amino-7-methoxy-[1,2,4]triazolo[1,5-c]quinazolin-2-yl)piperidin-1-yl)-1H-pyrazol-1-yl)-N-isopropyl-2-methylpropanamide]"
,9.40,7.15,"COc1cccc2c1nc(N)n1nc([C@@H]3CCCN(c4cnn(C5CCOC5)c4)C3)nc21 (single isomer, unassigned) [Example 57A]"
,9.40,8.26,"C[C@H]1CC[C@@H](c2nc3c4ccc(C5CC5)cc4nc(N)n3n2)CN1c1cnn(CC(C)(C)O)c1 (single isomer, unassigned) [Example 205, 1-(4-((2S, 5R or 2R,5S)-5-(5-amino-8-cyclopropyl-[1,2,4]triazolo[1,5-c]quinazolin-2-yl)-2-methylpiperidin-1-yl)-1H-pyrazol-1-yl)-2-methylpropan-2-ol]"
,9.15,9.00,"COc1cccc2c1nc(N)n1nc([C@@H]3CCCN(c4cnn(CC(F)(F)F)c4)C3)nc21 [Example 9, (R)-7-methoxy-2-(1-(1-(2,2,2-trifluoroethyl)-1H-pyrazol-4-yl)piperidin-3-yl)-[1,2,4]triazolo[1,5-c]quinazolin-5-amine]"
,9.40,7.79,"COc1cccc2c1nc(N)n1nc([C@@H]3CCCN(c4cnn(C(C)(C)CO)c4)C3)nc21 [Example 54, (R)-2-(4-(3-(5-amino-7-methoxy-[1,2,4]triazolo[1,5-c]quinazolin-2-yl)piperidin-1-yl)-1H-pyrazol-1-yl)-2-methylpropan-1-ol]"
,8.60,7.74,"COc1ccc2c(c1)nc(N)n1nc([C@@H]3CCCN(c4ccc(OC(F)F)nc4)C3)nc21 [Example 191, (R)-2-(-(6-(difluoromethoxy)pyridin-3-yl)piperidin-3-yl)-8-methoxy-[1,2,4]triazolo[1,5-c]quinazolin-5-amine]"
,7.85,6.93,"Cc1ccc2c(nc(N)n3nc(C4CCCN(c5cnn(C)c5)C4)nc23)c1C (single isomer, unassigned) [Example 167, (R or S)-7,8-dimethyl-2-(1-(1-methyl-1H-pyrazol-4-yl)piperidin-3-yl)-[1,2,4]triazolo[1,5-c]quinazolin-5-amine]"
,10.00,7.63,COc1cccc2c1nc(N)n1nc(C3CCCCN(c4cn(C)nn4)C3)nc21 (stereo not drawn) [Example 175]
,9.00,7.61,"COc1cccc2c1nc(N)n1nc([C@@H]3CCCN(c4cnn(C)c4)C3)nc21 [Example 17, (R)-7-methoxy-2-(1-(1-methyl-1H-pyrazol-4-yl)piperidin-3-yl)-[1,2,4]triazolo[1,5-c]quinazolin-5-amine]"
,9.05,6.37,"COc1cccc2c1nc(N)n1nc([C@@H]3CCCN(c4ncccn4)C3)nc21 [Example 117, (R)-7-methoxy-2-(1-(pyrimidin-2-yl)piperidin-3-yl)-[1,2,4]triazolo[1,5-c]quinazolin-5-amine]"
,10.00,6.61,"COc1cccc2c1nc(N)n1nc([C@@H]3CCCN(c4cnc(C)cn4)C3)nc21 [Example 106, (R)-7-methoxy-2-(1-(5-methylpyrazin-2-yl)piperidin-3-yl)-[1,2,4]triazolo[1,5-c]quinazolin-5-amine]"
,9.40,6.46,"COc1cccc2c1nc(N)n1nc([C@@H]3CCCN(c4cn(CC(C)(C)O)nc4C(F)(F)F)C3)nc21 [Example 52, (R)-1-(4-(3-(5-amino-7-methoxy-[1,2,4]triazolo[1,5-c]quinazolin-2-yl)piperidin-1-yl)-3-(trifluoromethyl)-1H-pyrazol-1-yl)-2-methylpropan-2-ol]"
,8.59,6.46,"COc1cccc2c1nc(N)n1nc([C@@H]3CCCN(c4cnn([C@@H]5CCNC5)c4)C3)nc21 [Example 45, 7-methoxy-2-((R)-1-(1-((R)-pyrrolidin-3-yl)-1H-pyrazol-4-yl)piperidin-3-yl)-[1,2,4]triazolo[1,5-c]quinazolin-5-amine]"
,9.00,6.60,"COc1ccc2c(c1)nc(N)n1nc([C@@H]3CCCN(c4cn(CC(C)(C)O)nc4C)C3)nc21 [Example 180, (R)-1-(4-(3-(5-amino-8-methoxy-[1,2,4]triazolo[1,5-c]quinazolin-2-yl)piperidin-1-yl)-3-methyl-1H-pyrazol-1-yl)-2-methylpropan-2-ol]"
,7.44,5.24,COc1ccc2c(c1)nc(N)n1nc([C@H]3C[C@@H](C)CN(c4cnn(CC(C)(C)O)c4)C3)nc21 [Example 195A]
,8.47,6.37,"COc1cccc2c1nc(N)n1nc(C3CCCC(c4cnn(CC(C)(C)O)c4)C3)nc21 (single isomer, unassigned) [Example 138]"
,6.63,5.08,"COc1ccc2c(c1)nc(N)n1nc([C@H]3CC[C@@H](C)N(c4cnn([C@H](C)C(C)(C)O)c4)C3)nc21 [Example 212B, (R)--3-(4-((2R,5S)-5-(5-amino-8-methoxy-[1,2,4]triazolo[1,5-c]quinazolin-2-yl)-2-methylpiperidin-1-yl)-1H-pyrazol-1-yl)-2-methylbutan-2-ol]"
,9.15,7.25,"COc1cccc2c1nc(N)n1nc([C@@H]3CCCN(c4cnc(OC(F)F)c(C)c4)C3)nc21 [Example 100, (R)-2-(1-(6-(difluoromethoxy)-5-methylpyridin-3-yl)piperidin-3-yl)-7-methoxy-[1,2,4]-triazolo[1,5-c]quinazolin-5-amine]"
,9.22,7.18,COc1cccc2c1nc(N)n1nc([C@@H]3CCCN(c4cn(C5CCOCC5)nc4C(F)F)C3)nc21 [Example 48]
